Assay results as given in patent publication EP0387762A2, “Medicament with positive inotropic activity, containing a synergistically active mixture consisting of a benzimidazole and a beta-blocker, its preparation and use” (Dr. Karl Thomae GmbH, priority 1989, dated 1990).

Key:
[1] = Acute toxicity, i.v., rat; conditions: in vivo, iv, Ratte, read-out: LD₅₀ i.v.
Text: (§1) Die erfindungsgemäß einsetzten Verbindungen sind gut verträglich. So weist beispielsweise die Verbindung A folgende akute Toxizitäten auf: […]

[2] = Acute toxicity, p.o., mouse; conditions: in vivo, po, Maus, read-out: LD₅₀ p.o.
Text: as §1

Compound	LD50 [1] [mg/kg]	LD50 [2] [mg/kg]
COc1ccc(-c2nc3ccc(C4=NNC(=O)CC4C)cc3[nH]2)cc1 (stereo not drawn) [Verbindung A, 2-(4-Methoxyphenyl)-5-(5-methyl-3-oxo-4,5-dihydro-2H-6-pyridazinyl)-benzimidazol]	72	600
CC1CC(=O)NN=C1c1ccc2nc(-c3ccc(O)cc3)[nH]c2c1 (stereo not drawn) [Verbindung B, 2-(4-Hydroxyphenyl)-5-(5-methyl-3-oxo-4,5-dihydro-2H-6-pyridazinyl)-benzimidazol]	> 100	–
